Values after ≈ are worked out from the molar mass of the structure shown. Numbered stars: 1 amine (or outer) side, 2 acyl side, 3 side chain; on linkers, the order of the positions; unused ones are H or OH. Square brackets hold non-standard residues; d marks the D form. Peptide text beside a SMILES is read from it. * marks the point of attachment. X8 = NC(=O)CN(C[C@H](Cc1ccccc1)N*)S(=O)(=O)c1cc(C(F)(F)F)cc(C(F)(F)F)c1; X6 = CC(C)C[C@@H](CN(CC(N)=O)S(=O)(=O)c1cc(C(F)(F)F)cc(C(F)(F)F)c1)N*; X5 = NC(=O)CN(C[C@H](Cc1ccccc1)N*)S(=O)(=O)c1ccc(C(F)(F)F)cc1; X4 = N[C@@H](Cc1ccccc1)CN(CC(=O)[*:2])[*:1]; X7 = O=S(=O)(c1cc(C(F)(F)F)cc(C(F)(F)F)c1)*; X2 = CC(C)C[C@H](N)CN(CC(=O)[*:2])[*:1]; X1 = O=S(=O)(c1ccc(C(F)(F)F)cc1)*
How the values were obtained:
[1] = system: Staphylococcus aureus; experiment: Antimicrobial activity against Staphylococcus aureus ATCC 25923 assessed as inhibition of visible bacterial growth incubated for 18 hrs by broth-dilution method; assay type: functional
[2] = system: Erythrocyte; experiment: Hemolytic activity against mouse Red blood cell incubated for 1 hr; assay type: toxicity, cell-based
[3] = system: Staphylococcus epidermidis; experiment: Antimicrobial activity against Staphylococcus epidermidis ATCC 12228 assessed as inhibition of visible bacterial growth incubated for 18 hrs by broth-dilution method; assay type: functional
[4] = system: Escherichia coli; experiment: Antimicrobial activity against Escherichia coli ATCC 25922 assessed as inhibition of visible bacterial growth incubated for 18 hrs by broth-dilution method; assay type: functional
[5] = system: Staphylococcus aureus; experiment: Antimicrobial activity against methicillin-resistant Staphylococcus aureus ATCC 33591 assessed as inhibition of visible bacterial growth incubated for 18 hrs by broth-dilution method; assay type: functional
[6] = system: Pseudomonas aeruginosa; experiment: Antimicrobial activity against Pseudomonas aeruginosa ATCC 27853 assessed as inhibition of visible bacterial growth incubated for 18 hrs by broth-dilution method; assay type: functional
[7] = system: Acinetobacter baumannii; experiment: Antimicrobial activity against Acinetobacter baumannii ATCC 19606 assessed as inhibition of visible bacterial growth incubated for 18 hrs by broth-dilution method; assay type: functional
[8] = system: Bacillus subtilis; experiment: Antimicrobial activity against Bacillus subtilis ATCC 23857 assessed as inhibition of visible bacterial growth incubated for 18 hrs by broth-dilution method; assay type: functional
[9] = system: Salmonella typhimurium; experiment: Antimicrobial activity against Salmonella typhimurium ATCC 14028 assessed as inhibition of visible bacterial growth incubated for 18 hrs by broth-dilution method; assay type: functional, Salmonella enterica subsp. enterica serovar Typhimurium; conditions: Salmonella enterica
[10] = system: Staphylococcus aureus; experiment: Antimicrobial activity against Staphylococcus aureus ATCC 25923 assessed as fold change in MIC in presence of salt solution; assay type: functional
[11] = Stability in human serum assessed as half life measured for 5 hrs by RP-HPLC analysis; assay type: ADME, cell-free
[12] = system: Staphylococcus aureus; experiment: Antimicrobial activity against Staphylococcus aureus ATCC 25923 assessed as reduction in bacterial growth in presence of Ca2+; assay type: functional

SMILES | MIC [1] [µg/mL] | MHC [2] [µg/mL] | MIC [3] [µg/mL] | MIC [4] [µg/mL] | MIC [5] [µg/mL] | MIC [6] [µg/mL] | MIC [7] [µg/mL] | MIC [8] [µg/mL] | MIC [9] [µg/mL] | fold change (FC) [10] | half-life [11] [h] | MIC [12] [µg/mL]
CC(C)C[C@H](NC(=O)[C@H](C)NC(=O)[C@H](CCCCN)NC(=O)[C@H](CC(C)C)NC(=O)[C@@H](N)Cc1ccccc1)C(=O)N[C@@H](CCCCN)C(=O)N[C@@H](CCCCN)C(=O)N[C@@H](Cc1ccccc1)CN(CC(N)=O)S(=O)(=O)c1cc(C(F)(F)F)cc(C(F)(F)F)c1 (H-FLKALKK-X8) | 16 (≈ 12.2 µM) | 256 | 16 (≈ 12.2 µM) | 32 (≈ 24.4 µM) | 16 (≈ 12.2 µM) | 16 (≈ 12.2 µM) | 128 (≈ 97.5 µM) | 16 (≈ 12.2 µM) | 32 (≈ 24.4 µM) | – | – | –
CC(C)C[C@H](NC(=O)[C@H](CC(C)C)NC(=O)[C@H](CCCCN)NC(=O)[C@H](CC(C)C)NC(=O)[C@@H](N)Cc1ccccc1)C(=O)N[C@@H](CCCCN)C(=O)N[C@@H](CCCCN)C(=O)N[C@@H](Cc1ccccc1)CN(CC(N)=O)S(=O)(=O)c1ccc(C(F)(F)F)cc1 (H-FLKLLKK-X5) | 8 (≈ 6.22 µM) | 128 | 4 (≈ 3.11 µM) | 32 (≈ 24.9 µM) | 8 (≈ 6.22 µM) | 8 (≈ 6.22 µM) | 16 (≈ 12.4 µM) | 4 (≈ 3.11 µM) | 16 (≈ 12.4 µM) | 0.25 | 2.61 | 32
CC(C)C[C@@H](CN(CC(N)=O)S(=O)(=O)c1cc(C(F)(F)F)cc(C(F)(F)F)c1)NC(=O)[C@H](CCCCN)NC(=O)[C@H](CCCCN)NC(=O)[C@H](CC(C)C)NC(=O)[C@H](CC(C)C)NC(=O)[C@H](CCCCN)NC(=O)[C@H](CC(C)C)NC(=O)[C@@H](N)Cc1ccccc1 (H-FLKLLKK-X6) | 8 (≈ 6.06 µM) | 128 | 16 (≈ 12.1 µM) | 8 (≈ 6.06 µM) | 4 (≈ 3.03 µM) | 8 (≈ 6.06 µM) | 8 (≈ 6.06 µM) | 16 (≈ 12.1 µM) | 8 (≈ 6.06 µM) | 0.25 | 2.24 | 32
CC(C)C[C@H](NC(=O)[C@H](CC(C)C)NC(=O)[C@H](CCCCN)NC(=O)[C@H](CC(C)C)NC(=O)[C@@H](N)Cc1ccccc1)C(=O)N[C@@H](CCCCN)C(=O)N[C@@H](CCCCN)C(=O)N[C@@H](Cc1ccccc1)CN(CC(N)=O)S(=O)(=O)c1cc(C(F)(F)F)cc(C(F)(F)F)c1 (H-FLKLLKK-X8) | 4 (≈ 2.95 µM) | 64 | 4 (≈ 2.95 µM) | 8 (≈ 5.91 µM) | 4 (≈ 2.95 µM) | 16 (≈ 11.8 µM) | 16 (≈ 11.8 µM) | 4 (≈ 2.95 µM) | 8 (≈ 5.91 µM) | – | 3.31 | –
CC(C)C[C@H](NC(=O)[C@H](CC(C)C)NC(=O)[C@H](CCCCN)NC(=O)[C@H](CCCCN)NC(=O)[C@H](CC(C)C)NC(=O)[C@H](CC(C)C)NC(=O)[C@H](CCCCN)NC(=O)CN(C[C@@H](N)Cc1ccccc1)S(=O)(=O)c1ccc(C(F)(F)F)cc1)C(N)=O (X1-[X4]KLLKKLL-NH2) | 8 (≈ 6.39 µM) | 32 | 4 (≈ 3.19 µM) | 8 (≈ 6.39 µM) | 4 (≈ 3.19 µM) | 8 (≈ 6.39 µM) | 16 (≈ 12.8 µM) | 4 (≈ 3.19 µM) | 8 (≈ 6.39 µM) | 0.25 | 7.96 | 32
CC(C)C[C@H](N)CN(CC(=O)N[C@@H](CCCCN)C(=O)N[C@@H](CC(C)C)C(=O)N[C@@H](CC(C)C)C(=O)N[C@@H](CCCCN)C(=O)N[C@@H](CCCCN)C(=O)N[C@@H](CC(C)C)C(=O)N[C@@H](CC(C)C)C(N)=O)S(=O)(=O)c1cc(C(F)(F)F)cc(C(F)(F)F)c1 (X7-[X2]KLLKKLL-NH2) | 8 (≈ 6.22 µM) | 128 | 16 (≈ 12.4 µM) | 8 (≈ 6.22 µM) | 4 (≈ 3.11 µM) | 4 (≈ 3.11 µM) | 16 (≈ 12.4 µM) | 16 (≈ 12.4 µM) | 16 (≈ 12.4 µM) | 0.25 | 3.33 | 32
